According to article PMC10251482, “Cyanomethyl Vinyl Ethers Against Naegleria fowleri” (ACS Chemical Neuroscience, 2023):
Like-named read-outs stand apart in the source and are kept apart here.

Columns and labels:
[1] = tested on: N. fowleri ATCC 30808 trophozoites; experiment: In vitro activity against trophozoite stage (alamarBlue), strain ATCC 30808; type: cell-based, Naegleria fowleri; details: for S.I. ATCC 30808 (selectivity index CC50/IC50): CC50 murine macrophages / IC50 N. fowleri ATCC 30808; for IC50 / IC90: Naegleria fowleri, ATCC30808, trophozoites, alamarBlue, 48 h incubation
[2] = tested on: N. fowleri ATCC 30215 trophozoites; experiment: In vitro activity against trophozoite stage (alamarBlue), strain ATCC 30215; type: cell-based; details: Naegleria fowleri, ATCC30215, 48 h incubation
[3] = In vitro cytotoxicity against murine macrophages (alamarBlue); type: cell-based; details: mouse
Procedure: (§1) For cytotoxicity assays, a murine cell line macrophage J774A.1 (ATCC TIB-67) was used, maintained in the Dulbecco’s modified Eagle’s medium (DMEM, w/v) supplemented with 10% (v/v) FBS and 10 μg/mL gentamicin (Sigma-Aldrich, Madrid, Spain), incubated at 37 °C in a 5% CO2 atmosphere.
(§2) In this assay, a murine macrophage cell line J774A.1 (ATCC TIB-67) was used. Serial dilutions of the compounds were added and, subsequently, the alamarBlue reagent as described in previous studies[51] was also placed. Once the plates were read on the EnSpire Multimode Plate Reader (PerkinElmer, Madrid, Spain), the data were analyzed to obtain the cytotoxic concentration 50 (CC50). This CC50, together with the activity, was used to obtain the selectivity index for N. fowleri.

[4] = tested on: murine macrophage cell line J774A.1 (ATCC TIB-67); experiment: as above; type: cell-based; details: mouse
Procedure: as §1, §2

[5] = tested on: N. fowleri ATCC 30808 cysts; experiment: In vitro activity against cyst stage (alamarBlue); type: cell-based; details: Naegleria fowleri, ATCC30808, read 24 h after adding reagent, read-out: Cysticidal activity, N. fowleri ATCC 30808 IC50
[6] = tested on: N. fowleri ATCC 30808 trophozoites; experiment: Chromatin condensation assay (Hoechst 33342/PI double stain); type: cell-based, Naegleria fowleri; details: 24 h incubation with IC90
Procedure: (§3) To evaluate the mechanisms of action of the compounds at the cellular level, a series of commercial kits were used according to the manufacturer’s instructions. To carry out the assays, the N. fowleri ATCC 30808 culture was previously incubated with the IC90 of the compounds evaluated for 24 h. Nontreated N. fowleri trophozoites were used as a negative control. […] Five images were processed each time at 40x and 100x objective lenses.
A double-stain apoptosis detection kit (Hoechst 33342/PI) (Life Technologies, Madrid, Spain) was used to evaluate DNA condensation based on the fluorescent detection for chromatin compaction in apoptotic cells, and the assay offers a rapid and convenient apoptosis detection. As soon as the amoebae have been incubated for 24 h with the active compound’s IC90, Hoechst and propidium iodide (PI) are added at a final concentration of 5 and 1 μg/mL, respectively. Fluorescence should be observed after 15 min of incubation in the dark. In apoptotic cells, Hoechst 33342, a dye for blue fluorescence, stains the condensed chromatin more intensely than that in normal cells. PI emits red fluorescence (maximum excitation and emission wavelengths when bound to DNA of 535 and 617 nm, respectively), which can only be emitted through dead cells.

[7] = tested on: N. fowleri ATCC 30808 trophozoites; experiment: Mitochondrial membrane potential disruption (JC-1); type: cell-based, Naegleria fowleri; details: 24 h incubation with IC90
Procedure: as §3
To determine the potential of the mitochondrial membrane was use the dye JC-1 (1,1′,3,3′-tetraethyl-5,5′,6,6′-tetrachloroimidacarbocyanine iodide) (Cayman Chemicals Vitro SA, Madrid, España). Once the amoebae were incubated for 24 h with the IC90 of the active compounds, 10 μL of JC-1 was added. […] The reagent fluoresces at two different wavelengths depending on the membrane potential. Under normal conditions, the monomers bind together to form J-aggregates (dimers) emitting red fluorescence at 595 nm.

[8] = tested on: N. fowleri ATCC 30808 trophozoites; experiment: ATP levels (CellTiter-Glo Luminescent Cell Viability Assay); type: cell-based, Naegleria fowleri; details: 24 h incubation with IC90
Procedure: To evaluate the mechanisms of action of the compounds at the cellular level, a series of commercial kits were used according to the manufacturer's instructions. To carry out the assays, the N. fowleri ATCC 30808 culture was previously incubated with the IC90 of the compounds evaluated for 24 h. Nontreated N. fowleri trophozoites were used as a negative control. […] Five images were processed each time at 40x and 100x objective lenses. In order to measure the amount of ATP produced, Cell […]-GLO Luminescent Cell Viability assay (Promega Biotech Ibérica, Madrid, Spain) was used. With this kit, it is possible to compare the ATP production of treated cells to that of nontreated (negative control). ATP levels were evaluated by luminescent analysis using an EnSpire Multimode Plate Reader (Perkin Elmer, Madrid, Spain) following incubation with IC90 of selected compounds at 37 °C for 24 h.

[9] = tested on: N. fowleri ATCC 30808 trophozoites; type: cell-based, Naegleria fowleri; details: not told
Procedure: as §3
The permeability of the plasma membrane can be analyzed using a green fluorescent dye called SYTOX Green (Life Technologies, Madrid, Spain). After the amoebae are incubated for 24 h with the IC90 of cyanomethyl vinyl ethers, SYTOX Green was added to a final concentration of 1 μM and after 15 min of incubation, cells were observed using Discover Echo Inc. Revolution Microscope (Discover Echo, San Diego, CA). The plasma membrane of the damaged cells will become permeable, giving the reagent the ability to enter through it. When inside the cell, it binds to the DNA and increases its fluorescence more than 500-fold, emitting green fluorescence at 523 nm.

[10] = tested on: N. fowleri ATCC 30808 trophozoites; experiment: Oxidative stress / ROS detection (CellROX Deep Red); type: cell-based, Naegleria fowleri; details: 24 h incubation with IC90
Procedure: To evaluate the mechanisms of action of the compounds at the cellular level, a series of commercial kits were used according to the manufacturer’s instructions. To carry out the assays, the N. fowleri ATCC 30808 culture was previously incubated with the IC90 of the compounds evaluated for 24 h. Nontreated N. fowleri trophozoites were used as a negative control. […] Five images were processed each time at 40x and 100x objective lenses. In this assay, the oxidative stress produced in the pathogen by the generation of oxygen free radicals is evaluated. The CellROX Deep Red kit (Invitrogen, Thermo Fisher Scientific, Madrid, Spain) was used in amoebae incubated for 24 h with the IC90 of the compounds to be tested. The reagent was used at a final concentration of 5 μM and incubated for 30 min. After this time, the action of the reagent was observed using the Discover Echo Inc. Revolution Microscope (Discover Echo, San Diego, CA). As a result of the overproduction of reactive oxygen species (ROS), this dye has the ability to penetrate the cells and emit red fluorescence at a wavelength of ∼644/665 nm.

[11] = tested on: N. fowleri ATCC 30808 trophozoites; experiment: Actin filament depolymerization (phalloidin-TRITC); type: cell-based, Naegleria fowleri; details: 24 h incubation with IC90, Z-stack imaging
Procedure: To evaluate the mechanisms of action of the compounds at the cellular level, a series of commercial kits were used according to the manufacturer’s instructions. To carry out the assays, the N. fowleri ATCC 30808 culture was previously incubated with the IC90 of the compounds evaluated for 24 h. Nontreated N. fowleri trophozoites were used as a negative control. […] Five images were processed each time at 40x and 100x objective lenses. The disassembly of cytoskeleton in treated amoebae can be analyzed by the red fluorescence emitted by phalloidin-TRITC when it binds to actin filaments. On the other hand, DAPI reagent was used which, in turn, binds to DNA and emits blue fluorescence, as already described in Acanthamoeba genus.[52] In this assay, amoebae were incubated with the IC90 of compounds. A 24-h incubation period was followed by the fixation of the cells with formaldehyde on a coverslip and the addition of 0.1% Triton before the addition of phalloidin-tetramethylrhodamine B isothiocyanate (phalloidin-TRITC; Sigma-Aldrich, Madrid, Spain) for another 30-min period. Finally, after incubation, the sample was washed with PBS. Cells were examined by Z-stack with a 100x objective of the EVOS FL Cell Imaging System AMF4300 (Life Technologies, Madrid, Spain).

[12] = J774A.1 macrophage cell line (ATCC TIB-67), alamarBlue, read-out: Murine macrophages J774.A1 CC50
[13] = Murine macrophages J774.A1 CC50

Compound	S.I. ATCC 30808 (selectivity index CC50/IC50) [1]	IC50 [1]	IC90 [1]	IC50 [2]	CC50 [3, 12]	CC50 [3, 13]	CC50 [4]	IC50 [5]	Chromatin condensation (Hoechst 33342 blue fluorescence) [6]	Mitochondrial membrane potential (JC-1 fluorescence) [7]	Decrease in ATP levels compared to the negative control [8]	Plasma membrane permeability (SYTOX Green fluorescence) [9]	Intracellular ROS generation (CellROX Deep Red fluorescence) [10]	Actin filaments (phalloidin-TRITC fluorescence) [11]	Propidium iodide red fluorescence [6]
C[C@@H]1[C@H](O)[C@@H](C)/C=C/C=C/C=C/C=C/C=C/C=C/C=C/[C@H](O[C@@H]2O[C@H](C)[C@@H](O)[C@H](N)[C@@H]2O)C[C@@H]2O[C@](O)(C[C@@H](O)C[C@@H](O)[C@H](O)CC[C@@H](O)C[C@@H](O)CC(=O)O[C@H]1C)C[C@H](O)[C@H]2C(=O)O [Amphotericin B, reference compound]	≥1652.89	0.12 ± 0.03 µM	0.35 ± 0.02 µM	0.16 ± 0.02 µM	≥ 200 µM	–	–	–	–	–	–	–	–	–	–
CCCCCCCCCCCCCCCCOP(=O)([O-])OCC[N+](C)(C)C [Miltefosine, miltefosine, reference compound]	3.30	38.7 ± 4.23 µM	89.5 ± 17.4 µM	81.6 ± 7.23 µM	128 ± 8.85 µM	–	–	–	–	–	–	–	–	–	–
COC(=O)/C=C/OC(C#N)c1ccccc1 (centres unmarked) [QOET-51]	14.23	49.9 ± 3.04 µM	173 ± 17.2 µM	68.5 ± 2.16 µM	–	709 ± 67.1 µM	–	–	–	–	–	–	–	–	–
COC(=O)/C=C/OC(C#N)c1ccc(C)cc1 (centres unmarked) [QOET-59]	>20	42.3 ± 6.44 µM	77.2 ± 11.8 µM	44.5 ± 0.48 µM	–	> 800 µM	> 865 µM	93.6 ± 17.5 µM	condensation was observed	disruption in the mitochondrial membrane potential	98.49%	show green fluorescence	increase of the intracellular ROS generation	bright red fluorescence region related to actin depolymerization	–
COC(=O)/C=C\OC(C#N)c1ccc(C(F)(F)F)cc1 (centres unmarked) [QOET-64]	>9	38.8 ± 2.13 µM	83.4 ± 9.47 µM	48.9 ± 0.81 µM	–	> 351 µM	–	–	–	–	–	–	–	–	–
COC(=O)/C=C/OC(C#N)c1cc(OC)c(OC)c(OC)c1 (centres unmarked) [QOET-67]	>6	48.3 ± 10.5 µM	154 ± 15.3 µM	121 ± 20.7 µM	–	> 325 µM	–	–	–	–	–	–	–	–	–
COC(=O)/C=C\OC(C#N)c1ccc(C)c(C)c1 (centres unmarked) [QOET-72]	>7	47.7 ± 4.1 µM	185 ± 7.05 µM	50.1 ± 4.9 µM	–	> 408 µM	–	130 ± 22.8 µM	condensation was observed	disruption in the mitochondrial membrane potential	90.25%	show green fluorescence	increase of the intracellular ROS generation	bright red fluorescence region related to actin depolymerization	–
COC(=O)/C=C/OC(C#N)c1ccccc1C (centres unmarked) [QOET-77]	>10	39.2 ± 6.3 µM	117 ± 26.1 µM	42.7 ± 8.5 µM	–	> 394 µM	–	102 ± 7.01 µM	condensation was observed	disruption in the mitochondrial membrane potential	86.28%	show green fluorescence	increase of the intracellular ROS generation	only low red fluorescence was detected	late apoptosis phase
COC(=O)/C=C/OC(C#N)c1ccc(F)cc1 (centres unmarked) [QOET-79]	>10	43.3 ± 5.69 µM	119 ± 26 µM	54.3 ± 7.4 µM	–	> 425 µM	–	–	–	–	–	–	–	–	–
